Patent US7125878B2, “Substituted pyrroline kinase inhibitors” (Janssen Pharmaceutica, priority 2002, dated 2006)
“And” between values parts separate entries of the source, which are not always exact repeats. Equal entries are not always repeated.

How the values were obtained:
PKC-βII = PKC-βII (Homo sapiens, UniProt P05771); assay: Protein Kinase C Histone-Based Assay, isozyme β-II; assay type: biochemical
Protocol: (§1) Compounds were evaluated for PKC isozyme selectivity using histone III as the substrate. […] 100 μg/mL phosphatidylserine, 20 μg/mL diacylglycerol, 30 μM ATP, 1 μCi [^33P]ATP and 200 μg/mL histone III. The reaction was incubated for 10 min at 30° C. Reactions were terminated by TCA precipitation and spotting on Whatman P81 filters. Filters were washed in 75 mM phosphoric acid and the radioactivity quantified by liquid scintillation counting.

PKC-γ = PKC-γ (Homo sapiens, UniProt P05129); assay: Protein Kinase C Histone-Based Assay, isozyme γ; conditions: for inhibition at 1 µM / inhibition at 10 µM: read-out: PKC-γ % inhibition
Protocol: as §1

[1] = biological target: T1, recombinant rabbit GSK-3β protein (Oryctolagus cuniculus, UniProt G1T8E2); assay: Glycogen Synthase Kinase-3 Assay (33P phosphorylation of PPI-2); assay type: biochemical; conditions: for IC50: two numbers = data obtained on different days
T1 construct: purchased New England Biolabs
Protocol: Glycogen Synthase Kinase-3 Assay
Compounds were tested for the ability to inhibit recombinant rabbit GSK-3β protein using the following protocol. The test compound was added to a reaction mixture containing Protein Phosphatase Inhibitor-2 (PPI-2) (Calbiochem) (45 ng), rabbit GSK-3β protein (New England Biolabs) (0.75 units) and ^33P-ATP (1 μCi) in 50 mM Tris-HCl (pH 8.0), 10 mM MgCl2, 0.1% BSA, 1 mM DTT and 100 μM Sodium Vanadate. The mixture was reacted for 90 minutes at 30° C. to allow phosphorylation of the PPI-2 protein and then the protein in the reaction was precipitated using 10% TCA. The precipitated protein was collected on filter plates (MultiScreen-DV/Millipore), which were subsequently washed. Finally, the radioactivity was quantified using a TopCount Scintillation Counter (Packard). […] Staurosporine or Valproate, known inhibitors of GSK-3β, were used as a positive control for screening.

PKC-α = PKC-α (Homo sapiens, UniProt P17252); assay: Protein Kinase C Histone-Based Assay, isozyme α; conditions: for inhibition at 1 µM / inhibition at 10 µM: read-out: PKC-α % inhibition
Protocol: as §1

Chain of PKC-βII (P05771 1-673 isoform P05771-2): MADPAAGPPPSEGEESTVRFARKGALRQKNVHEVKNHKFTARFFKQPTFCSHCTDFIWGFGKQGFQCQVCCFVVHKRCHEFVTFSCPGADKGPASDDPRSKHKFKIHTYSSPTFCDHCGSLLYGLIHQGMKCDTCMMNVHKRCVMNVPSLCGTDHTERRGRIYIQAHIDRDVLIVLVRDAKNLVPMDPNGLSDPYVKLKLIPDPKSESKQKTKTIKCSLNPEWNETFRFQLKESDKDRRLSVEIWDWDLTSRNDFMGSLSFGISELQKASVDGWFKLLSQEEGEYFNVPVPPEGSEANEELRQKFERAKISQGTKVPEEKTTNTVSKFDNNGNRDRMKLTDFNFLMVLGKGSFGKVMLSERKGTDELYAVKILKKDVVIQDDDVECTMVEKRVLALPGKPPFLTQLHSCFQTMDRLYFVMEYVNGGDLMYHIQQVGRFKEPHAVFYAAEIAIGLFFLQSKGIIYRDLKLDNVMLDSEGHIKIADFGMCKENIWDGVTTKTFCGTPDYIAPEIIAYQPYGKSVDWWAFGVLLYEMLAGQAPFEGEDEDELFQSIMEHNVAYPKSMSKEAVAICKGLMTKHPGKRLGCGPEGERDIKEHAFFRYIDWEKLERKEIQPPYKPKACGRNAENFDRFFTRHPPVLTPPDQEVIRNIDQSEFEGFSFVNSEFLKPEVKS
T1 sequence (G1T8E2 1-432): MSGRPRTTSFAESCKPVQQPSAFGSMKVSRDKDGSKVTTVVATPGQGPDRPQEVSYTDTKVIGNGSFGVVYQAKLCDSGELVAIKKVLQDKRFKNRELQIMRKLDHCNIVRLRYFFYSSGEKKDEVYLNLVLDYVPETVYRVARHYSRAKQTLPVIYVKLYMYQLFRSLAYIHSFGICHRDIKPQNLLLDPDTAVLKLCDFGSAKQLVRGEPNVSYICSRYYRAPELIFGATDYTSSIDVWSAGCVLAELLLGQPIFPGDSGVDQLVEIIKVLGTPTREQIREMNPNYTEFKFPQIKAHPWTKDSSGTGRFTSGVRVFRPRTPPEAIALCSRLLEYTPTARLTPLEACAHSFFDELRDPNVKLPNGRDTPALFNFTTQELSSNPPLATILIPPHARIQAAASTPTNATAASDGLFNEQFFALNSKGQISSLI

O=C1NC(=O)C(c2cn(CCCO)c3ncccc23)=C1c1ccccc1Cl [Cpd 1, 3-(2-chlorophenyl)-4-[1-(3-hydroxypropyl)-1H-pyrrolo[2,3-b]pyridin-3-yl]-1H-pyrrole-2,5-dione]
inhibition at 1 µM (PKC-βII): 14%
inhibition at 10 µM (PKC-βII): 81%
inhibition at 1 µM (PKC-γ): 48%
inhibition at 10 µM (PKC-γ): 43%
IC50 [1]: 9 nM and 10 nM
inhibition at 1 µM (PKC-α): 18%
inhibition at 10 µM (PKC-α): 2%

CN(C)CCCn1cc(C2=C(c3ccccc3Cl)C(=O)NC2=O)c2cccnc21 [Cpd 2, 3-(2-chlorophenyl)-4-[1-[3-(dimethylamino)propyl]-1H-pyrrolo[2,3-b]pyridin-3-yl]-1H-pyrrole-2,5-dione]
inhibition at 1 µM (PKC-βII): 22%
inhibition at 10 µM (PKC-βII): 50%
inhibition at 1 µM (PKC-γ): 46%
inhibition at 10 µM (PKC-γ): 54%
IC50 [1]: 19 nM
inhibition at 1 µM (PKC-α): 0%
inhibition at 10 µM (PKC-α): 1%

CN(C)CCCn1nc(C2=C(c3cn(-c4ccc5ccccc5c4)c4ncccc34)C(=O)NC2=O)c2ccccc21 [Cpd 20, 3-[1-[3-(dimethylamino)propyl]-1H-indazol-3-yl]-4-[1-(2-naphthalenyl)-1H-pyrrolo[2,3-b]pyridin-3-yl]-1H-pyrrole-2,5-dione]
IC50 (PKC-βII; histone III substrate): 2 nM
IC50 (PKC-γ): 151 nM
inhibition at 1 µM ([1]; @1 μM, two numbers = different days): 21%
IC50 (PKC-α): 53 nM

COc1ccccc1C1=C(c2cn(CCCNC=O)c3ncccc23)C(=O)NC1=O [Cpd 78, N-[3-[3-[2,5-dihydro-4-(2-methoxyphenyl)-2,5-dioxo-1H-pyrrol-3-yl]-1H-pyrrolo[2,3-b]pyridin-1-yl]propyl]-formamide]
inhibition at 1 µM (PKC-βII): 21%
inhibition at 10 µM (PKC-γ): 48%
IC50 [1]: 7 nM and 9 nM
inhibition at 10 µM (PKC-α): 33%

O=C1NC(=O)C(c2cn(CCCO)c3ncccc23)=C1c1csc2ccc(Cl)cc12 [Cpd 5, 3-(5-chlorobenzo[b]thien-3-yl)-4-[1-(3-hydroxypropyl)-1H-pyrrolo[2,3-b]pyridin-3-yl]-1H-pyrrole-2,5-dione]
inhibition at 1 µM (PKC-βII): 21%
inhibition at 10 µM (PKC-βII): 81%
inhibition at 1 µM (PKC-γ): 44%
inhibition at 10 µM (PKC-γ): 57%
inhibition at 0.4 µM ([1]; @400 nM): 56%
inhibition at 1 µM (PKC-α): 0%
inhibition at 10 µM (PKC-α): 34%
